Laboratory results reported in paper PMC7827085 (Pharmaceutics, 2021).
Substitutions are numbered along the chain they refer to.

Key:
[1] = target: T1, ABCG2/BCRP (Homo sapiens, UniProt Q9UNQ0); experiment: in vitro; conditions: human
T1 sequence (Q9UNQ0 1-655): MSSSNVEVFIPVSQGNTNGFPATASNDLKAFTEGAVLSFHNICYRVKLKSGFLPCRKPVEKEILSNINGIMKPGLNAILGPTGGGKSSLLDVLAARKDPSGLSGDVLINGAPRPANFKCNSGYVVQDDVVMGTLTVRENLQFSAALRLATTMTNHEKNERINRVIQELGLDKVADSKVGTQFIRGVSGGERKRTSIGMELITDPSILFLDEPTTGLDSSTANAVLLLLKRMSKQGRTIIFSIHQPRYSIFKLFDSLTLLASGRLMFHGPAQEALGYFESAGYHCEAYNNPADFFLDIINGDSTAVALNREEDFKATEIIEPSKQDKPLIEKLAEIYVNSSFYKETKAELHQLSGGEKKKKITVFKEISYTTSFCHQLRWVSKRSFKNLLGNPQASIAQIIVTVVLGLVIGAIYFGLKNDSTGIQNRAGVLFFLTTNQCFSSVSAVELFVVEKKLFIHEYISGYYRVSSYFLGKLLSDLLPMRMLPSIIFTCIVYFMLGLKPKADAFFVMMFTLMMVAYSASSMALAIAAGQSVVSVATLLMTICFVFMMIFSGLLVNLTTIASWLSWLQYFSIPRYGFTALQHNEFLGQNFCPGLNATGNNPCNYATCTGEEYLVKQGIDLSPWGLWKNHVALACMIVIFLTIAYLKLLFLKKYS
Procedure: These were employed at 37 °C for 10 min (ABCG2), 1 min (ABCB1), or 3 min (ABCC1), with or without 4 mM Mg-ATP, in a 50 μL final volume. The known reference inhibitors of the transporters (1 µM Ko143 for ABCG2, 1 µM Valspodar for ABCB1, and 200 µM Benzbromarone for ABCC1) served as controls. Each test compound was dissolved in DMSO and a 1 µL volume was added to the samples. After incubation, the samples were filtered and washed, and the substrates in the vesicles were dissolved in 10% SDS and transferred onto another plate. After the addition of a stabilizer, the fluorescence was measured in plate readers (Victor X3 and Enspire Perkin-Elmer, Waltham, MA, USA), while the activity of the radiolabeled substrate was measured by liquid scintillation counting (Perkin Elmer MicroBeta2 liquid scintillation counter, Perkin Elmer, Waltham, MA, USA). ABC transporter-related vesicular transport was calculated by subtracting uptake measured in the presence of Mg-AMP from the values measured in the presence of Mg-ATP.
The effects of the test compounds on ABCG2 activity were also measured in a vesicular transport assay by using inverted membrane vesicles prepared from HEK-293 cells expressing high levels of the ABCG2 transporter.

[2] = target: T2, ABCB1/MDR1/Pgp (Homo sapiens, UniProt P08183); experiment: in vitro; conditions: human
T2 sequence (P08183 whole entry): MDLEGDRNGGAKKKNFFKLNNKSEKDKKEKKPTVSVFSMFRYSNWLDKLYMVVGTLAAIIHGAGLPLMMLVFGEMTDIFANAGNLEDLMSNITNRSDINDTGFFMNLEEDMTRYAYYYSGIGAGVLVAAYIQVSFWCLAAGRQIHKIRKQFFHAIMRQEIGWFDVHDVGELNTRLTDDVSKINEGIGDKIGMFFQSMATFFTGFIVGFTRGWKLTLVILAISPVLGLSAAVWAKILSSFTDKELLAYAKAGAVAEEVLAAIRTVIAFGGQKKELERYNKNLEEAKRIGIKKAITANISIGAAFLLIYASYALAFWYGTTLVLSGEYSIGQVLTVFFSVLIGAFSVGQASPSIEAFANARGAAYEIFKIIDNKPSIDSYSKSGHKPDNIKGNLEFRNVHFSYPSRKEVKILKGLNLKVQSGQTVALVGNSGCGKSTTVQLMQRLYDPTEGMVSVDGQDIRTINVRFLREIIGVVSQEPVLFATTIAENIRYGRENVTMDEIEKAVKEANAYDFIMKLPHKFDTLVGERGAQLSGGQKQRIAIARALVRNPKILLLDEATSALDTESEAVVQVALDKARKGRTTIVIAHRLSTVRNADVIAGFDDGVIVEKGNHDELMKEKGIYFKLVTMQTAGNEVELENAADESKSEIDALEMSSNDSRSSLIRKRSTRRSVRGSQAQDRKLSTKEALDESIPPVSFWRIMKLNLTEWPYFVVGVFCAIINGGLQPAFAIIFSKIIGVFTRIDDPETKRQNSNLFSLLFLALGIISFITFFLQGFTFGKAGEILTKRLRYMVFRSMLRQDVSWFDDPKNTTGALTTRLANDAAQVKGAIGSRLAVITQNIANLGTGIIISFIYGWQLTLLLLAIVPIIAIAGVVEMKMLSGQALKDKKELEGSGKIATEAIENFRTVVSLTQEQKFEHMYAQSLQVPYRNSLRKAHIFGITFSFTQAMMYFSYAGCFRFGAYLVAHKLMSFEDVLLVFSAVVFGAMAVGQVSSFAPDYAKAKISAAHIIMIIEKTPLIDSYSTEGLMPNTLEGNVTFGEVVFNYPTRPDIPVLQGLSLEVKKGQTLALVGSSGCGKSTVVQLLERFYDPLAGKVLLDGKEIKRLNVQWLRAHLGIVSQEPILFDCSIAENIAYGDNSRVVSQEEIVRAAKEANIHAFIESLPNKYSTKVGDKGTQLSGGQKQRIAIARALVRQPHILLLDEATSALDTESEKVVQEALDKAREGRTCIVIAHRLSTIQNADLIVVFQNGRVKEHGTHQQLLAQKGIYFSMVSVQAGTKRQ
Procedure: (§1) For the ABC transporter assays, we used both cell-based and membrane-based functional assays. […] The respective transport activities were assayed by measuring the cellular fluorescence of the respective transported substrates Phengreen (ABCG2) and Calcein (ABCB1 and ABCC1).
(§2) The cells were kept on ice until the flow cytometry measurements. All experiments were performed in triplicate and in at least three biological parallels.
(§3) The cells were kept on ice until the flow cytometry measurements. All experiments were performed in triplicate and in at least three biological parallels. […] The PhenGreen (PG) or Calcein signal was detected in the BL1 channel (emission filter: 530/30 nm). Analysis of the data was carried out by the Attune Nxt Cytometer Software v3.1.2 (Thermo Fischer Scientific, Waltham, MA, USA). The inhibition of transporter activity was calculated by comparing the fluorescence in the presence of the test compound to that in the presence of a specific inhibitor providing maximum inhibition. […] Half-maximum inhibition (IC50) values were calculated by using the Origin2019 software (9.6.5.169, OriginLab Corporation, Northampton, MA, USA). […] In these experiments, we measured Hoechst dye extrusion in HeLa cells stably expressing eGFP and the ABCG2 variants driven by the same promoter—the transgenic cells generated by the Sleeping Beauty transposon system. […] For details, see Zámbó et al.). […] The maximum inhibition was defined for each variant as the fluorescence difference of the samples incubated with and without Ko143, respectively. […] Data analysis was performed using the Attune Nxt Cytometer Software v3.1.2. Two samples per condition and three biological replicates were examined in each experiment.
ABCB1 is a high-affinity active efflux transporter of the viability dye Calcein-AM (CaAM). […] Here, we applied this widely used cellular assay (see https://www.solvobiotech.com/services/categories/dye-efflux-assays) to characterize drug interactions of the applied compounds in intact PLB-985 cells, expressing high levels of the ABCB1 protein.

[3] = target: T1, ABCG2/BCRP; experiment: in vitro; conditions: human; remark: listed apart in the source
Procedure: as §1, §3
Here, we used both PhenGreen-SK diacetate and Hst dye for these measurements. The PhenGreen (PG) assay is a recently patented method applied for ensuring an efficient ABCG2 transport measurement, as the non-fluorescent PhenGreen diacetate (PG-DA) is actively extruded by ABCG2 and the cellular fluorescence is correlated with ABCG2 transport activity. Therefore, we applied this assay to characterize the test drug interactions in intact PLB-985 cells expressing high levels of the ABCG2 protein. […] ABCG2 inhibition by the test compounds was estimated by their relative (%) inhibition compared to full inhibition by Ko143.

[4] = target: T3, ABCC1/MRP1 (Homo sapiens, UniProt P33527); experiment: in vitro; conditions: HL60/ABCC1 cells
T3 sequence (P33527 whole entry): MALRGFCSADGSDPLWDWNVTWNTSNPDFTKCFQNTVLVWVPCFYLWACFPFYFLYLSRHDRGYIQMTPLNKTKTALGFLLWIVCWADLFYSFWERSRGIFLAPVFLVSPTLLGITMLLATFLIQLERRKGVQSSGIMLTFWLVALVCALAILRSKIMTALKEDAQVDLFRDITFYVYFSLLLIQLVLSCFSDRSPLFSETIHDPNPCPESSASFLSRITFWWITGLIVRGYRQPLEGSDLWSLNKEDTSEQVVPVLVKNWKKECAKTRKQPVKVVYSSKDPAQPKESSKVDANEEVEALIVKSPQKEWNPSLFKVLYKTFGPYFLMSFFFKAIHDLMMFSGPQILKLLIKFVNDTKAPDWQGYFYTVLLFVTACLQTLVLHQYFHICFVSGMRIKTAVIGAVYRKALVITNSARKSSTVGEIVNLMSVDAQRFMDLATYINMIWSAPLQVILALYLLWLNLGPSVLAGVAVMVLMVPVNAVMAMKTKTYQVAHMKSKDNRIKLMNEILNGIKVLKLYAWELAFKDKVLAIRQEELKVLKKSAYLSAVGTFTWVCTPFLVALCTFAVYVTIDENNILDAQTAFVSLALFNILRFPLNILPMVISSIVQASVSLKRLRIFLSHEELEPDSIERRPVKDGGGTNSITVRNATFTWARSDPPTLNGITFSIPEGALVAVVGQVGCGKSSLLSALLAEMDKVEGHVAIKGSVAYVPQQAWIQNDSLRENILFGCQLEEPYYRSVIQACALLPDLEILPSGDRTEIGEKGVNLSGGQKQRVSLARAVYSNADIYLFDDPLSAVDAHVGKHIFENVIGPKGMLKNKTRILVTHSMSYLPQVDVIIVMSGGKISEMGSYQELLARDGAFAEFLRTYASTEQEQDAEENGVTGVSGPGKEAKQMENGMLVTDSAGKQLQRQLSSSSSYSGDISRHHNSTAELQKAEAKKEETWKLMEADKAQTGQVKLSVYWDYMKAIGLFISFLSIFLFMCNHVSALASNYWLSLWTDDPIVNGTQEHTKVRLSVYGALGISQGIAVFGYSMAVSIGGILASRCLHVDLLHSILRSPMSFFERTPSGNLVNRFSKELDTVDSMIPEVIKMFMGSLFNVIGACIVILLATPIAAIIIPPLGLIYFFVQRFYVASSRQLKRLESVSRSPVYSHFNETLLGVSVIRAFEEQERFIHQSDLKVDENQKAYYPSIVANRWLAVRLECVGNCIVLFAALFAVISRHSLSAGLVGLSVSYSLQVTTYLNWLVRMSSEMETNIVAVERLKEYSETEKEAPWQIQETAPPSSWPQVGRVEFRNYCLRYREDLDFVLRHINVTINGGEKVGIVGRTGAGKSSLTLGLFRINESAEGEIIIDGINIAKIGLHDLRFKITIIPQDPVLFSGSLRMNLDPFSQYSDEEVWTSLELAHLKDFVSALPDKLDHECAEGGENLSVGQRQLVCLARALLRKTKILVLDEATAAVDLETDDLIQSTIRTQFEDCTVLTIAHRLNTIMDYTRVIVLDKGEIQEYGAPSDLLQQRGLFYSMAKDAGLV
Procedure: as §1, §2, §3
Therefore, we applied this assay to characterize the test drug interactions in intact HL60 cells expressing high levels of the ABCC1 protein.

[5] = target: T2, ABCB1/MDR1/Pgp; experiment: in vitro; conditions: Estimated Transporter Inhibition IC50, ABCB1 vesicular assay, ATP-dependent NMQ uptake, HEK-293/ABCB1 inverted membrane vesicles, '-' = no inhibition
[6] = target: T3, ABCC1/MRP1
[7] = target: T4, OATP1A2 (Homo sapiens, UniProt P46721); experiment: cell-based
T4 sequence (P46721 1-670): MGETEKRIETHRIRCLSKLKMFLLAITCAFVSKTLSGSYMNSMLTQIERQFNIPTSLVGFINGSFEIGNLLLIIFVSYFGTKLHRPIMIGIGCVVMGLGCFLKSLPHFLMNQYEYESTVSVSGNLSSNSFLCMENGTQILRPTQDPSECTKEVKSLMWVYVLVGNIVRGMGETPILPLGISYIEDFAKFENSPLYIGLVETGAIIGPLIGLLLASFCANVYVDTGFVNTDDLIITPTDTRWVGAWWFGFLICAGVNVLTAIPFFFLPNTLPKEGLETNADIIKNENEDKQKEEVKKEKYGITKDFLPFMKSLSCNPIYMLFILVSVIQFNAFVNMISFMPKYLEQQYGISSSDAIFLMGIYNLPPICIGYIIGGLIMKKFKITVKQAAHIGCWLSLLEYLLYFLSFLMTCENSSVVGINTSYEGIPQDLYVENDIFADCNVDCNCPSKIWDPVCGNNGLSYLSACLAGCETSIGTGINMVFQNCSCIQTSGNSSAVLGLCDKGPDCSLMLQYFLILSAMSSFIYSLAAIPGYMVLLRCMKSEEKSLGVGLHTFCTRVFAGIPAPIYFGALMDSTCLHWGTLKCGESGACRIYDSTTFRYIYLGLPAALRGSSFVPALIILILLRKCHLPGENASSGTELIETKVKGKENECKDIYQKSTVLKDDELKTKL

[8] = target: T5, Q141K-ABCG2 variant (Homo sapiens, UniProt Q9UNQ0, Q141K); experiment: Hoechst 33342 dye extrusion in HeLa cells expressing Q141K-ABCG2; assay type: cell-based; conditions: Q141K-ABCG2 variant vs WT
T5 construct: expressed in transfected cells; host or cells: HeLa (Sleeping Beauty transposon system)
T5 sequence (Q9UNQ0 1-655 Q141K): T1 sequence (Q9UNQ0 1-655) with Q141K

[9] = target: T6, ABCB1/Pgp (Homo sapiens, UniProt P08183); experiment: ABCB1-ATPase activity in Sf9 membrane vesicles; assay type: biochemical
T6 construct: made in house; host or cells: Sf9 insect cells
T6 sequence (P08183 whole entry): as the sequence (P08183 whole entry) above
Procedure: ABC transporter ATPase activity was measured in Sf9 membrane vesicles containing the respective human ABC transporters. For ABCG2/BCRP, the cholesterol level in the vesicles was increased to the level of mammalian cell membranes for full activity. For ABCB1/Pgp 20 μg/150 μL and for ABCG2/BCRP 10 μg/150 μL, vesicles were incubated with 3 mM Mg-ATP for 25 min at 37 °C. The test drugs were dissolved in DMSO and 1 µL was added to the samples. The ABC transporter-related ATPase activity was determined and reference activators (50 µM verapamil for ABCB1 and 5 µM quercetin for ABCG2) served as controls.
Drug-stimulated ATPase activity of the ABCB1 transporter is a well-documented functional assay employed to estimate the substrate or inhibitory features of various drugs. […] In this assay, most transported substrates show a biphasic curve: Low concentrations stimulate, while higher concentrations inhibit, the ATPase activity. In these experiments, we measured the vanadate-sensitive (ABC transporter-related) ABCB1-ATPase activity in membrane vesicles isolated from ABCB1 overexpressing Sf9 cells.

[10] = target: T1, ABCG2/BCRP; experiment: ABCG2-ATPase activity in Sf9 membrane vesicles; assay type: biochemical; set-up: expressed in transfected cells; host or cells: PLB-985; conditions: Sf9/ABCG2 membranes; ivermectin, ritonavir, lopinavir at low micromolar, remdesivir at higher concentrations
Procedure: ABC transporter ATPase activity was measured in Sf9 membrane vesicles containing the respective human ABC transporters [46, 47, 48, 49, 50]. For ABCG2/BCRP, the cholesterol level in the vesicles was increased to the level of mammalian cell membranes for full activity [49]. For ABCB1/Pgp 20 μg/150 μL and for ABCG2/BCRP 10 μg/150 μL, vesicles were incubated with 3 mM Mg-ATP for 25 min at 37 °C. The test drugs were dissolved in DMSO and 1 µL was added to the samples. The ABC transporter-related ATPase activity was determined and reference activators (50 µM verapamil for ABCB1 and 5 µM quercetin for ABCG2) served as controls.
Drug-stimulated ATPase activity of the ABCG2 transporter was also measured in the present study.

[11] = target: T7, wild-type ABCG2 (Homo sapiens, UniProt Q9UNQ0); experiment: Hoechst 33342 dye extrusion in HeLa cells expressing wild-type ABCG2; assay type: cell-based; conditions: wild-type ABCG2, 0.2 µM Hoechst 33342, full inhibition by 1 µM Ko143
T7 construct: expressed in transfected cells; host or cells: HeLa (Sleeping Beauty transposon system)
T7 sequence (Q9UNQ0 1-655): T1 sequence (Q9UNQ0 1-655)

[12] = target: T3, ABCC1/MRP1; experiment: in vitro
[13] = target: T8, OATP2B1 (Homo sapiens, UniProt O94956); experiment: cell-based
T8 sequence (O94956 1-709): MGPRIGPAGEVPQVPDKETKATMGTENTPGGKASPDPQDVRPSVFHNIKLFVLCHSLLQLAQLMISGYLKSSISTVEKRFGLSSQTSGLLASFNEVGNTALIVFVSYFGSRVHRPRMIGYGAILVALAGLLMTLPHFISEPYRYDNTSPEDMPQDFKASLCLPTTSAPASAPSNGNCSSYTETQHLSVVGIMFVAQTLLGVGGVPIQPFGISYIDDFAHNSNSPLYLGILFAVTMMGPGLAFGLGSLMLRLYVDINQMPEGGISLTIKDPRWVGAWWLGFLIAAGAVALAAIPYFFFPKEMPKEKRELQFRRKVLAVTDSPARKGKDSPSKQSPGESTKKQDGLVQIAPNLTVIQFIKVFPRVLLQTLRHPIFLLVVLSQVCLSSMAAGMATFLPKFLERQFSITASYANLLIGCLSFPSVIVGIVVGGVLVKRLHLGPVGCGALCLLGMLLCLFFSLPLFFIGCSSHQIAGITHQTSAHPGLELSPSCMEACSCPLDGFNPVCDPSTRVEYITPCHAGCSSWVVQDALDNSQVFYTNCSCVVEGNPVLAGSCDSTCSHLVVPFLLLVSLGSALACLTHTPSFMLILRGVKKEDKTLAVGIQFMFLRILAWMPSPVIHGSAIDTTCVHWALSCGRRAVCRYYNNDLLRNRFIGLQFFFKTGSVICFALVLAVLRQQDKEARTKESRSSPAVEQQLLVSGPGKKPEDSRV

Structure (SMILES) | IC50 at 10 min [1] [µM] | IC50 at 40 min [2] [µM] | IC50 at 40 min [3] [µM] | Effect on ABCC1-dependent CaAM extrusion (in words) [4] | IC50 [5] [µM] | Effect on ABCC1 vesicular ETGB transport (in words) [6] | IC50 [7] [nM] | Inhibition of Hst dye extrusion in Q141K-ABCG2 HeLa cells compared with wild type (in words) [8] | Concentration of maximal ABCB1-ATPase stimulation ([9]; Sf9/ABCB1 membranes) | Effect on ABCB1-ATPase activity (in words) ([9]; Sf9/ABCB1 membranes, 50 µM verapamil as reference activator) | Effect on ABCB1-ATPase activity at higher concentrations (in words) ([9]; at higher concentrations) | Effect on baseline ABCG2-ATPase activity (in words) [10] | Effect on Hst dye extrusion by ABCG2 in HeLa cells (in words) [11] | inhibition at 3 min [12] [%] | IC50 [13] [nM]
CCN(CC)CCCC(C)Nc1ccnc2cc(Cl)ccc12 (stereo not drawn) [chloroquine] | > 50 | > 50 | > 50 | practically no effect | > 50 | practically no effect |  |  |  |  |  |  |  |  | 
Cc1cccc(C)c1OCC(=O)N[C@@H](Cc1ccccc1)[C@@H](O)C[C@H](Cc1ccccc1)NC(=O)[C@H](C(C)C)N1CCCNC1=O [lopinavir] |  |  |  |  |  |  | 1500 | significantly stronger inhibition | around 0.5 µM | significant ABCB1-ATPase stimulation | inhibitory effects | significantly inhibited | inhibited | 60 | 1000
